This passage reports Ki results from patent publication US20050004163A1, “3-(diarylmethylene)-8-azabicyclo[3.2.1]octane derivatives” (priority 2000, published 2005).

T1 sequence (P33535 whole entry): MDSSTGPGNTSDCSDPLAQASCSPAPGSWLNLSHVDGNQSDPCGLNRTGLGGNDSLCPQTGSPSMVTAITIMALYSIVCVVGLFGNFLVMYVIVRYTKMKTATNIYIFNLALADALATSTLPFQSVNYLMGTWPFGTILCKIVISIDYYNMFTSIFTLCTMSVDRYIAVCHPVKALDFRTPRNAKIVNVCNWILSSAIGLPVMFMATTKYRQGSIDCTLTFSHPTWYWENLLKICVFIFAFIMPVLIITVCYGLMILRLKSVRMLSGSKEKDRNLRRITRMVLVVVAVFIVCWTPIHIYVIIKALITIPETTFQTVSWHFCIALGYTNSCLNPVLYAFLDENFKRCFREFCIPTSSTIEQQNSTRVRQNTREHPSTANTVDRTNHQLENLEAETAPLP

One experiment addresses T1, μ-opioid receptor (Rattus norvegicus, UniProt P33535).
T1 construct: the forebrains are homogenized in Tris buffer in a Teflon®-glass homogenizer; from tissue; host or cells: forebrain of male Wistar rats (particulate membrane preparation)
Put plainly: Rat brain μ-opioid receptor binding assay ([3H]DAMGO). As to conditions: 10 nM solutions of the compounds, read-out: MOR binding Ki. As for the experimental part:
Rat Brain μ-Opioid Receptor Binding Assay
Male, Wistar rats (150-250 g, VAF, Charles River, Kingston, N.Y.) are killed by cervical dislocation and their brains removed and placed immediately in ice cold Tris HCl buffer (50 mM, pH 7.4). The forebrains are separated from the remainder of the brain by a coronal transection, beginning dorsally at the colliculi and passing ventrally through the midbrain-pontine junction. After dissection, the forebrains are homogenized in Tris buffer in a Teflon®-glass homogenizer. The homogenate is diluted to a concentration of 1 g of forebrain tissue per 100 mL Tris buffer and centrifuged at 39,000×G for 10 min. The pellet is resuspended in the same volume of Tris buffer with several brief pulses from a Polytron homogenizer. This particulate preparation is used for the μ-opioid binding assays. […] The tubes and filters are rinsed three times with 4 mL of 10 mM HEPES (pH 7.4) and the radioactivity associated with the filter circles determined using Formula 989 scintillation fluid (New England Nuclear, Boston, Mass.) in a scintillation counter.
The data are used to calculate either the % inhibition compared to control binding (when only a single concentration of test compound is evaluated) or a Ki value (when a range of concentrations is tested).
% Inhibition is calculated as follows: [formula]
Ki value is calculated using the LIGAND (Munson, P. J. and Rodbard, D., Anal. Biochem. 107: 220-239, 1980) data analysis program.
The term Ki denotes a dissociation constant, usually derived from enzyme kinetics or from competition with a known ligand. For the molecule `CCNC(=O)c1ccc(C(=C2CC3CCC(C2)N3Cc2ccsc2)c2ccc(CO)cc2)cc1` (single isomer, unassigned) [Cpd 206], the inhibition constant (Ki) was 80.1 nM.
The same measure, in the same setting: next, `CCNC(=O)c1ccc(C(Br)=C2CC3CCC(C2)N3Cc2ccco2)cc1` [Cpd 24]: 21.7 nM.
On the same count and under the same terms, next, `CCNC(=O)c1ccc(C(Br)=C2CC3CCC(C2)N3Cc2ccc(NC(C)=O)cc2)cc1` [Cpd 21]: 48.2 nM; `CCNC(=O)c1ccc(C(=C2CC3CCC(C2)N3Cc2ccco2)c2nnn[nH]2)cc1` [Cpd 204]: 25300 nM.
Still for that read-out and setting: the value for `CCNC(=O)c1ccc(C=C2CC3CCC(C2)N3Cc2ccoc2)cc1` [Cpd 36] was 109 nM; that for `CCNC(=O)c1ccc(C(=C2CC3CCC(C2)N3C=O)c2cccnc2)cc1` [Cpd 207, N-Ethyl-4-[(8-formyl-8-aza-bicyclo[3.2.1]oct-3-ylidene)-pyridin-3-yl-methyl]-benzamide] was 10000 nM.
`CCNC(=O)c1ccc(C(=C2CC3CCC(C2)N3Cc2ccccn2)c2ccc(C(N)=O)cc2)cc1` [Cpd 183]: the inhibition constant (Ki) turned out to be 5050 nM.
For `CCCCN1C2CCC1CC(=Cc1ccc(C(=O)NCC)cc1)C2` [Cpd 53], the Ki stood at 262 nM.
In the case of `CCNC(=O)c1ccc(C(=C2CC3CCC(C2)N3CC=C(C)C)c2cccc(C(=O)O)c2)cc1` (single isomer, unassigned) [Cpd 44], the Ki is 58.3 nM.
Same read-out and setting: the value for `CCNC(=O)c1ccc(C=C2CC3CCC(C2)N3Cc2cccs2)cc1` [Cpd 61] was 71.2 nM.

Staying with this experiment, now noted: MOR binding Ki.
Molecule `CCNC(=O)c1ccc(C(=C2CC3CCC(C2)N3Cc2cccs2)c2cc(N)cc(C(=O)O)c2)cc1` [Cpd 120] registered an inhibition constant (Ki) of 5360 nM.
In the case of `CCNC(=O)c1ccc(C(=C2CC3CCC(C2)N3Cc2ccccn2)c2ccc(CO)cc2)cc1` [Cpd 193], the Ki is 25.3 nM.
On the same count and under the same terms, next, `CCNC(=O)c1ccc(C(=C2CC3CCC(C2)N3Cc2ccco2)c2nnn[nH]2)cc1` [Cpd 146]: 15.2 nM; `CCNC(=O)c1ccc(C(=C2CC3CCC(C2)N3Cc2nccs2)c2ccc([N+](=O)[O-])cc2)cc1` [Cpd 130]: 221 nM.
On the same count and under the same terms, next, `CCNC(=O)c1ccc(C(=C2CC3CCC(C2)N3C(=O)c2ccoc2)c2cccnc2)cc1` [Cpd 214]: 580 nM.
The same measure, in the same setting: the value for `CCNC(=O)c1ccc(C(=C2CC3CCC(C2)N3Cc2ccsc2)c2cccc(C(=O)O)c2)cc1` [Cpd 175] was 34.4 nM; that for `CCNC(=O)c1ccc(C(=C2CC3CCC(C2)N3Cc2ccoc2)c2cccc(CO)c2)cc1` [Cpd 178] was 0.81 nM; that for `CCNC(=O)c1ccc(C=C2CC3CCC(C2)N3CC=C(C)C)cc1` [Cpd 55] was 195 nM.
Molecule `CCN(CC)C(=O)c1ccc(C(=C2CC3CCC(C2)N3C(=N)N)c2ccccc2)cc1` [Cpd 198, 4-[(8-Carbamimidoyl-8-aza-bicyclo[3.2.1]oct-3-ylidene)-phenyl-methyl]-N,N-diethyl-benzamide] showed an inhibitory constant (Ki) of 10000 nM.
On the same count and under the same terms, the value for `CCNC(=O)c1ccc(C(=C2CC3CCC(C2)N3Cc2nccs2)c2ccc(CO)cc2)cc1` [Cpd 195] was 64.2 nM; that for `CCNC(=O)c1ccc(C=C2CC3CCC(C2)N3CCC(C#N)(c2ccccc2)c2ccccc2)cc1` [Cpd 106, 4-[8-(3-Cyano-3,3-diphenylpropyl)-8-aza-bicyclo[3.2.1]oct-3-ylidenemethyl]-N-ethyl-benzamide] was 53.6 nM; that for `CCNC(=O)c1ccc(C(=C2CC3CCC(C2)N3CCc2ccccc2)c2cccc(CN)c2)cc1` [Cpd 158] was 12 nM.
The same measure, in the same setting: the value for `CCNC(=O)c1ccc(C(=C2CC3CCC(C2)N3Cc2nccs2)c2ccc(S(N)(=O)=O)cc2)cc1` [Cpd 140] was 217 nM; that for `CCNC(=O)c1ccc(C(=C2CC3CCC(C2)N3Cc2ccccn2)c2ccc(NS(C)(=O)=O)cc2)cc1` [Cpd 182] was 2.71 nM; that for `CCNC(=O)c1ccc(C(=C2CC3CCC(C2)N3CCc2ccccc2)c2cc(N)cc(C(=O)O)c2)cc1` [Cpd 116] was 1510 nM.
Still for that read-out and setting: the value for `CCNC(=O)c1ccc(C(=C2CC3CCC(C2)N3Cc2csc([N+](=O)[O-])c2)c2cccnc2)cc1` [Cpd 74] was 37.5 nM.
Turning to `CCNC(=O)c1ccc(C(=C2CC3CCC(C2)N3Cc2ccoc2)c2ccc(C(=O)O)cc2)cc1` [Cpd 97], the affinity, expressed as Ki, was 11.9 nM.
Molecule `CCNC(=O)c1ccc(C(=C2CC3CCC(C2)N3CCc2ccccc2)c2ccc(NS(C)(=O)=O)cc2)cc1` [Cpd 185] returned a Ki of 58.9 nM.
Still for that read-out and setting: next, `CCNC(=O)c1ccc(C(=C2CC3CCC(C2)N3Cc2ccsc2)c2nnn[nH]2)cc1` [Cpd 148]: 329 nM; `CCNC(=O)c1ccc(C(=C2CC3CCC(C2)N3Cc2ccsc2)c2ccc(CO)cc2)cc1` [Cpd 205]: 17.2 nM.
On the same count and under the same terms, next, `CCNC(=O)c1ccc(C=C2C[C@H]3CC[C@@H](C2)N3CCc2ccccc2)cc1` (single isomer, unassigned) [Cpd 41, (+)—N-Ethyl-4-(8-phenethyl-8-aza-bicyclo[3.2.1]oct-3-ylidenemethyl)-benzamide]: 124 nM.
Same read-out and setting: next, `CCNC(=O)c1ccc(C(=C2CC3CCC(C2)N3C(=O)c2ccccn2)c2cccnc2)cc1` [Cpd 213]: 10000 nM; `CCNC(=O)c1ccc(C(=C2CC3CCC(C2)N3Cc2cccs2)c2cccc(-c3nnn[nH]3)c2)cc1` [Cpd 168]: 395 nM.
Regarding `CCNC(=O)c1ccc(C(=C2CC3CCC(C2)N3Cc2ccc(NC(C)=O)cc2)c2cccc(C(=O)O)c2)cc1` [Cpd 84], the affinity corresponds to a Ki of 5660 nM.
The molecule `CCNC(=O)c1ccc(C(C#N)=C2CC3CCC(C2)N3)cc1` [Cpd 145] showed a Ki of 945 nM.
Still for that read-out and setting: next, `CCNC(=O)c1ccc(C(=C2CC3CCC(C2)N3Cc2ccco2)c2cc(N)cc(C(=O)O)c2)cc1` [Cpd 108]: 10000 nM; `CCNC(=O)c1ccc(C(=C2CC3CCC(C2)N3Cc2ccc3ccccc3n2)c2cccc(C(C)=O)c2)cc1` [Cpd 73]: 35.9 nM; `CCNC(=O)c1ccc(C(=C2CC3CCC(C2)N3CC=C(C)C)c2cccc3cccnc23)cc1` [Cpd 67]: 119 nM.
Still for that read-out and setting: next, `CCNC(=O)c1ccc(C(=C2CC3CCC(C2)N3Cc2ccccn2)c2cc(N)cc(C(=O)O)c2)cc1` [Cpd 112]: 10000 nM.
`CCNC(=O)c1ccc(C(=C2CC3CCC(C2)N3Cc2cccs2)c2cccc3cccnc23)cc1` [Cpd 68] had a Ki of 155 nM.
Still for that read-out and setting: next, `CCNC(=O)c1ccc(C(Br)=C2CC3CCC(C2)N3Cc2ncc[nH]2)cc1` [Cpd 22]: 58.5 nM; `CCNC(=O)c1ccc(C(=C2CC3CCC(C2)N3Cc2nccs2)c2cccc(CN)c2)cc1` [Cpd 160]: 7230 nM.
On the same count and under the same terms, next, `CCNC(=O)c1ccc(C(=C2CC3CCC(C2)N3Cc2ccc(C(=O)O)cc2)c2ccccc2)cc1` [Cpd 94]: 322 nM.
Take `CCNC(=O)c1ccc(C(=C2CC3CCC(C2)N3CC=C(C)C)c2cccc(-c3nnn[nH]3)c2)cc1` [Cpd 163]: the Ki came out at 49.3 nM.
For `CCNC(=O)c1ccc(C(=C2CC3CCC(C2)N3Cc2cccs2)c2cnc3ccccc3c2)cc1` [Cpd 64], the inhibition constant Ki is 30.8 nM.
`CCNC(=O)c1ccc(C(=C2CC3CCC(C2)N3Cc2ccsc2)c2ccc(C(=O)O)cc2)cc1` [Cpd 176]: the inhibition constant Ki is 10.7 nM.
In turn, `CCNC(=O)c1ccc(C(Br)=C2CC3CCC(C2)N3Cc2[nH]cnc2C)cc1` [Cpd 27] returned a Ki of 99.8 nM.
Same read-out and setting: the value for `CCNC(=O)c1ccc(C(=C2CC3CCC(C2)N3Cc2ccsc2)c2cccc(-c3nnn[nH]3)c2)cc1` [Cpd 169] was 14.2 nM; that for `CCNC(=O)c1ccc(C(=C2CC3CCC(C2)N3Cc2ccoc2)c2ccc(CCC(=O)O)cc2)cc1` [Cpd 127] was 2.96 nM; that for `CCNC(=O)c1ccc(C(=C2CC3CCC(C2)N3Cc2ccoc2)c2cc(N)cc(C(=O)O)c2)cc1` [Cpd 110] was 9140 nM.
Still for that read-out and setting: next, `CCNC(=O)c1ccc(C(=C2CC3CCC(C2)N3CCc2ccccc2)c2cc(C(=O)O)cc([N+](=O)[O-])c2)cc1` [Cpd 157]: 8.57 nM.
Same read-out and setting: next, `CCNC(=O)c1ccc(C(=C2CC3CCC(C2)N3CC=C(C)C)c2cccc(CN)c2)cc1` [Cpd 156]: 5450 nM.
Consider `CCNC(=O)c1ccc(C(=C2CC3CCC(C2)N3CC=C(C)C)c2cccc(C(=O)O)c2)cc1` [Cpd 47, 3{(4-Ethylcarbamoyl-phenyl)-[8-(3-methyl-but-2-enyl)-8-aza-bicyclo[3.2.1]oct-3-ylidene]-methyl}-benzoic acid], for which the inhibition constant (Ki) is 125 nM.
With `CCNC(=O)c1ccc(C(=C2CC3CCC(C2)N3Cc2ccoc2)c2ccc(C(N)=O)cc2)cc1` [Cpd 177], the inhibitory constant (Ki) was determined as 1.34 nM.
Same read-out and setting: the value for `CCNC(=O)c1ccc(C(=C2CC3CCC(C2)N3Cc2ccc3c(c2)OCO3)c2cnc3ccccc3c2)cc1` [Cpd 65] was 42.6 nM; that for `CCNC(=O)c1ccc(C(=C2CC3CCC(C2)N3Cc2ccco2)c2ccc3c(c2)OCO3)cc1` [Cpd 8] was 7.41 nM; that for `CCNC(=O)c1ccc(C(=C2CC3CCC(C2)N3C(=O)c2cccs2)c2cccnc2)cc1` [Cpd 208, N-Ethyl-4-{pyridin-3-yl-[8-(thiophene-2-carbonyl)-8-aza-bicyclo[3.2.1]oct-3-ylidene]-methyl}-benzamide] was 61.7 nM.
Regarding `CCNC(=O)c1ccc(/C(=C2\C[C@H]3CC[C@@H](C2)N3Cc2ccccn2)c2ccc(C(=O)N(C)C)cc2)cc1` [Cpd 113, N-Ethyl-4-[N′,N′-dimethylbenzamide-(8-pyridin-2-ylmethyl-8-aza-bicyclo[3.2.1]oct-3-ylidene)-methyl]-benzamide], affinity was put at a Ki of 36.6 nM.
